From ChEMBL document CHEMBL3813676, “2-Benzoyl-6-benzylidenecyclohexanone analogs as potent dual inhibitors of acetylcholinesterase and butyrylcholinesterase” (Bioorg Med Chem, 2016)
Activity calls are given as the source filed them. The rule behind the calls is not given here.

What was measured:
[1] = target: Cholinesterase (Equus caballus) (UniProt P81908); test: Inhibition of equine serum BChE preincubated for 15 mins at 10 uM followed by addition of S-butyrylthiocholine iodide as substrate measured after 30 mins by Ellman's microplate assay
[2] = target: Acetylcholinesterase (Electrophorus electricus) (UniProt O42275); test: Inhibition of electric eel AChE preincubated for 15 mins at 10 uM followed by addition of acetylthiocholine iodide as substrate measured after 30 mins by Ellman's microplate assay
[3] = target: T1, Acetylcholinesterase (Electrophorus electricus, UniProt O42275)
Description: Inhibition of electric eel AChE preincubated for 15 mins followed by addition of acetylthiocholine iodide as substrate measured after 30 mins by Ellman's microplate assay

[4] = target: T2, Cholinesterase (Equus caballus, UniProt P81908)
Description: Inhibition of equine serum BChE preincubated for 15 mins followed by addition of S-butyrylthiocholine iodide as substrate measured after 30 mins by Ellman's microplate assay

[5] = target: T2, Cholinesterase; test: Mixed type inhibition of equine serum BChE preincubated for 15 mins followed by addition of S-butyrylthiocholine iodide as substrate measured after 30 mins by Lineweaver-Burk double reciprocal plot analysis
[6] = target: T1, Acetylcholinesterase; test: Mixed type inhibition of electric eel AChE preincubated for 15 mins followed by addition of acetylthiocholine iodide as substrate measured after 30 mins by Lineweaver-Burk double reciprocal plot analysis

T2 sequence (P81908 whole entry): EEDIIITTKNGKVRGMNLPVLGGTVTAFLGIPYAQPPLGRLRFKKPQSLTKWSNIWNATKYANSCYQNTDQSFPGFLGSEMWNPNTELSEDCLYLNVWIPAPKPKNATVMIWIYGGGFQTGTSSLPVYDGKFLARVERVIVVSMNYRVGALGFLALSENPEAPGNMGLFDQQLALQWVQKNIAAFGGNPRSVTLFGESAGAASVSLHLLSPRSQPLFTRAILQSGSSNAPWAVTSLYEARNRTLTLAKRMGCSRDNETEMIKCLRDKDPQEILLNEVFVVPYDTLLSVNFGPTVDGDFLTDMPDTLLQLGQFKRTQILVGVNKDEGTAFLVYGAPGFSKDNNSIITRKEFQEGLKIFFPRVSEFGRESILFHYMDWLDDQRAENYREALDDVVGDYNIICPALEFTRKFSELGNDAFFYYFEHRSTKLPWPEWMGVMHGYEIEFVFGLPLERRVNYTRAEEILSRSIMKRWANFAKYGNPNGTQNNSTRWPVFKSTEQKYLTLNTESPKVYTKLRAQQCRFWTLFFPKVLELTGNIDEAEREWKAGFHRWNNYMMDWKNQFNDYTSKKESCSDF
Sequence of Cholinesterase (Equus caballus) (P81908 whole entry): as above
Sequence of Acetylcholinesterase (Electrophorus electricus) (O42275 24-633 limits assumed): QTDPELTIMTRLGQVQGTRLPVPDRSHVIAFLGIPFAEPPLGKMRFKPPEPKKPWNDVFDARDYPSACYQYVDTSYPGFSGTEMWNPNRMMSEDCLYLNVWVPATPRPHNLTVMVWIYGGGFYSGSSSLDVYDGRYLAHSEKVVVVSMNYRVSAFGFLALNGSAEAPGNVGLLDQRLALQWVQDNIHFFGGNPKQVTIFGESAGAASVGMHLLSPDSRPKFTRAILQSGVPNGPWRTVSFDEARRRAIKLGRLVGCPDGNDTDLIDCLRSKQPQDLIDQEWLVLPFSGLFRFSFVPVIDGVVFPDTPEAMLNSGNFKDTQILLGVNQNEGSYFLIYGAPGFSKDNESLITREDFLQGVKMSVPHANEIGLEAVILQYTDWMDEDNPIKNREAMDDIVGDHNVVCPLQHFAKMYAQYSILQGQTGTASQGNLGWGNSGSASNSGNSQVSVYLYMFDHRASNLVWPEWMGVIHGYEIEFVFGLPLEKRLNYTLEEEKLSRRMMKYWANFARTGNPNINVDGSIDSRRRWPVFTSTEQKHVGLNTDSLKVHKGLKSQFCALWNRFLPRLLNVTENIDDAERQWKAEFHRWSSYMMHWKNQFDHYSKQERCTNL
T1 sequence (O42275 whole entry): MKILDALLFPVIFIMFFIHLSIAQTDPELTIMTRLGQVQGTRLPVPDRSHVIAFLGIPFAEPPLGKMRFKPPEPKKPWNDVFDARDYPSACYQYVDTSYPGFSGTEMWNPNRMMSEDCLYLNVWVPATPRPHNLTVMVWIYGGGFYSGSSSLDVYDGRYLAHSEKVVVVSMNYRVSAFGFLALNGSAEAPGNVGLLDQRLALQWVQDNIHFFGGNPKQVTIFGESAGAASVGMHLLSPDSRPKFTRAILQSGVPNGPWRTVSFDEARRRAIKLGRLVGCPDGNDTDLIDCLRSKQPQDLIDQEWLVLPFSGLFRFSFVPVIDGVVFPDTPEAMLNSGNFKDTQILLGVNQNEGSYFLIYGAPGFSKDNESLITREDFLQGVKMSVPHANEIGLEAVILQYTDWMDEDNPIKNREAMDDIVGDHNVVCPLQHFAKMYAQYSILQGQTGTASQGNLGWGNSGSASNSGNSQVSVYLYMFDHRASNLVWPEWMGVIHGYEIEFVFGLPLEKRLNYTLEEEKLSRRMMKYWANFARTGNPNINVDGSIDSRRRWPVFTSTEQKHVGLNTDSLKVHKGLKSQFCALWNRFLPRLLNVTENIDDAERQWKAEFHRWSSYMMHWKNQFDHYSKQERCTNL

O=C(C1=C(O)/C(=C/c2ccccc2)CCC1)c1ccccc1
inhibition [1]: inactive
inhibition [2]: inactive

O=C(C1=C(O)/C(=C/c2ccccc2Br)CCC1)c1ccccc1
inhibition [1]: inactive
IC50 [3]: 8.4 µM
inhibition [2]: Active

COc1cccc(/C=C2\CCCC(C(=O)c3ccccc3)=C2O)c1OC
inhibition [1]: inactive
inhibition [2]: inactive

O=C(C1=C(O)/C(=C/c2ccc(O)cc2)CCC1)c1ccccc1
inhibition [1]: inactive
inhibition [2]: inactive

O=C(C1=C(O)/C(=C/c2ccc(O)c(O)c2)CCC1)c1ccccc1
inhibition [1]: Active
IC50 [4]: 6500 nM
inhibition [2]: inactive

COc1cccc(/C=C2\CCCC(C(=O)c3ccccc3)=C2O)c1
inhibition [1]: inactive
IC50 [3]: 7.4 µM
inhibition [2]: Active

COc1cc(/C=C2\CCCC(C(=O)c3ccccc3)=C2O)ccc1O
inhibition [1]: inactive
inhibition [2]: inactive

O=C(C1=C(O)/C(=C/c2ccc(Cl)cc2)CCC1)c1ccccc1
inhibition [1]: inactive
IC50 [3]: 7.6 µM
inhibition [2]: Active

O=C(C1=C(O)/C(=C/c2ccc(O)c(Br)c2)CCC1)c1ccccc1
inhibition [1]: Active
IC50 [4]: 4700 nM
inhibition [2]: inactive

O=C(C1=C(O)/C(=C/c2cccc(F)c2)CCC1)c1ccccc1
inhibition [1]: inactive
IC50 [3]: 9.7 µM
inhibition [2]: Active

Cc1cccc(/C=C2\CCCC(C(=O)c3ccccc3)=C2O)c1
inhibition [1]: inactive
IC50 [3]: 8.6 µM
inhibition [2]: Active

COc1ccc(/C=C2\CCCC(C(=O)c3ccccc3)=C2O)cc1O
inhibition [1]: inactive
inhibition [2]: inactive

O=C(C1=C(O)/C(=C/c2cccc(Cl)c2Cl)CCC1)c1ccccc1
inhibition [1]: inactive
IC50 [3]: 5.9 µM
inhibition [2]: Active

COc1ccc(OC)c(/C=C2\CCCC(C(=O)c3ccccc3)=C2O)c1
inhibition [1]: inactive
inhibition [2]: inactive

O=C(C1=C(O)/C(=C/c2ccc(OCCN3CCCC3)cc2)CCC1)c1ccccc1
inhibition [1]: Active
IC50 [3]: 2 µM
IC50 [4]: 2300 nM
inhibition [2]: Active

O=C(C1=C(O)/C(=C/c2cccc(OCCN3CCCC3)c2)CCC1)c1ccccc1
inhibition [1]: Active
Ki [5]: 200 nM
IC50 [3]: 3.5 µM
IC50 [4]: 600 nM
inhibition [2]: Active

O=C(C1=C(O)/C(=C/c2cccc(Cl)c2)CCC1)c1ccccc1
inhibition [1]: inactive
inhibition [2]: inactive

O=C(C1=C(O)/C(=C/c2ccc(F)cc2)CCC1)c1ccccc1
inhibition [1]: inactive
IC50 [3]: 6.6 µM
inhibition [2]: Active

O=C(C1=C(O)/C(=C/c2ccc(Cl)cc2Cl)CCC1)c1ccccc1
inhibition [1]: inactive
IC50 [3]: 5.4 µM
inhibition [2]: Active

O=C(C1=C(O)/C(=C/c2ccc(Cl)c(Cl)c2)CCC1)c1ccccc1
inhibition [1]: inactive
IC50 [3]: 9.8 µM
inhibition [2]: Active

O=C(C1=C(O)/C(=C/c2ccc(Cc3ccccc3)cc2)CCC1)c1ccccc1
inhibition [1]: inactive
IC50 [3]: 8.4 µM
inhibition [2]: Active

O=C(C1=C(O)/C(=C/c2ccc(F)c(F)c2)CCC1)c1ccccc1
inhibition [1]: inactive
IC50 [3]: 8.7 µM
inhibition [2]: Active

O=C(C1=C(O)/C(=C/c2ccc(Br)c(Br)c2)CCC1)c1ccccc1
inhibition [1]: inactive
IC50 [3]: 9 µM
inhibition [2]: Active

COc1ccc(/C=C2\CCCC(C(=O)c3ccccc3)=C2O)c(OC)c1OC
inhibition [1]: inactive
inhibition [2]: inactive

O=C(C1=C(O)/C(=C/c2ccc(OCCN3CCCCC3)cc2)CCC1)c1ccccc1
inhibition [1]: Active
Ki [6]: 1900 nM
IC50 [3]: 1.6 µM
IC50 [4]: 2700 nM
inhibition [2]: Active

Cc1ccc(/C=C2\CCCC(C(=O)c3ccccc3)=C2O)s1
inhibition [1]: inactive
IC50 [3]: 5.9 µM
inhibition [2]: Active

COc1ccc(/C=C2\CCCC(C(=O)c3ccccc3)=C2O)cc1OC
inhibition [1]: inactive
inhibition [2]: inactive

O=C(C1=C(O)/C(=C/c2cccc(OCCN3CCCCC3)c2)CCC1)c1ccccc1
inhibition [1]: Active
IC50 [3]: 3.1 µM
IC50 [4]: 1400 nM
inhibition [2]: Active

O=C(C1=C(O)/C(=C/c2cccc(O)c2)CCC1)c1ccccc1
inhibition [1]: inactive
inhibition [2]: inactive

O=C(C1=C(O)/C(=C/c2ccc(Br)cc2)CCC1)c1ccccc1
inhibition [1]: inactive
IC50 [3]: 8.7 µM
inhibition [2]: Active

O=C(C1=C(O)/C(=C/c2ccc(O)c(Cl)c2)CCC1)c1ccccc1
inhibition [1]: Active
IC50 [4]: 10600 nM
inhibition [2]: inactive

COc1cc(/C=C2\CCCC(C(=O)c3ccccc3)=C2O)cc(OC)c1OC
inhibition [1]: inactive
inhibition [2]: inactive

O=C(C1=C(O)/C(=C/c2cccc(Cc3ccccc3)c2)CCC1)c1ccccc1
inhibition [1]: inactive
IC50 [3]: 7.8 µM
inhibition [2]: Active

O=C(C1=C(O)/C(=C/c2ccccc2F)CCC1)c1ccccc1
inhibition [1]: inactive
IC50 [3]: 6.6 µM
inhibition [2]: Active

O=C(C1=C(O)/C(=C/c2cccs2)CCC1)c1ccccc1
inhibition [1]: inactive
IC50 [3]: 5.1 µM
inhibition [2]: Active

O=C(C1=C(O)/C(=C/c2ccccc2Cl)CCC1)c1ccccc1
inhibition [1]: inactive
IC50 [3]: 8.2 µM
inhibition [2]: inactive

O=C(C1=C(O)/C(=C/c2ccc3ccccc3c2)CCC1)c1ccccc1
inhibition [1]: inactive
IC50 [3]: 8.3 µM
inhibition [2]: Active

O=C(C1=C(O)/C(=C/c2cccc3ccccc23)CCC1)c1ccccc1
inhibition [1]: inactive
IC50 [3]: 7.6 µM
inhibition [2]: Active

Cc1ccc(/C=C2\CCCC(C(=O)c3ccccc3)=C2O)cc1
inhibition [1]: inactive
IC50 [3]: 8.5 µM
inhibition [2]: Active

COc1ccccc1/C=C1\CCCC(C(=O)c2ccccc2)=C1O
inhibition [1]: inactive
inhibition [2]: inactive

COc1ccc(/C=C2\CCCC(C(=O)c3ccccc3)=C2O)cc1
inhibition [1]: inactive
inhibition [2]: inactive
